Test: xn = mol fraction of the nth substance listed
Settings: 101.3 kPa, Liquid; for viscosity: Capillary tube (Ostwald / Ubbelohde) method

OCCCO [propan-1,3-diol] + O
Settings | mass density [kg/m3] | speed of sound [m/s] | viscosity [mPa·s]
298.15 K, x2 = 0.0622 | 1050.19 | 1650.1 | 37.15
298.15 K, x2 = 0.1496 | 1050.32 | 1654.3 | 32.92
298.15 K, x2 = 0.2563 | 1050.38 | 1670.2 | 27.68
298.15 K, x2 = 0.35 | 1050.3 | 1693.5 | 23.09
298.15 K, x2 = 0.4555 | 1049.74 | 1717.8 | 18.09
298.15 K, x2 = 0.5 | 1049.21 | 1723.1 | 16.07
298.15 K, x2 = 0.5548 | 1048.18 | 1726.1 | 13.67
298.15 K, x2 = 0.6522 | 1044.85 | 1723.3 | 9.731
298.15 K, x2 = 0.7553 | 1038.16 | 1712.1 | 6.136
298.15 K, x2 = 0.8522 | 1027.32 | 1689.1 | 3.434
298.15 K, x2 = 0.9085 | 1018.19 | 1653.2 | 2.22
298.15 K, x2 = 0.9147 | 1017.03 | 1646.8 | 2.104
298.15 K, x2 = 0.9255 | 1014.92 | 1636.1 | 1.91
298.15 K, x2 = 0.935 | 1012.97 | 1623.9 | 1.749
298.15 K, x2 = 0.9548 | 1008.63 | 1596 | 1.442
298.15 K, x2 = 0.9556 | 1008.44 | 1594 | 1.43
298.15 K, x2 = 0.9602 | 1007.37 | 1586 | 1.365
298.15 K, x2 = 0.97 | 1005 | 1568.2 | 1.233
298.15 K, x2 = 0.9801 | 1002.45 | 1547.1 | 1.107
298.15 K, x2 = 0.9897 | 999.9 | 1525.3 | 0.997
298.15 K, x2 = 0.9921 | 999.25 | 1519.1 | 0.971
298.15 K, x2 = 0.9951 | 998.42 | 1511 | 0.939
308.15 K, x2 = 0.0622 | 1043.88 | 1627.1 | 25.31
308.15 K, x2 = 0.1496 | 1044.01 | 1634.1 | 22.46
308.15 K, x2 = 0.2563 | 1044.07 | 1645.9 | 18.9
308.15 K, x2 = 0.35 | 1043.97 | 1662.2 | 15.8
308.15 K, x2 = 0.4555 | 1043.39 | 1681 | 12.44
308.15 K, x2 = 0.5 | 1042.86 | 1688 | 11.08
308.15 K, x2 = 0.5548 | 1041.87 | 1695.1 | 9.49
308.15 K, x2 = 0.6522 | 1038.75 | 1702.2 | 6.881
308.15 K, x2 = 0.7553 | 1032.55 | 1698.8 | 4.495
308.15 K, x2 = 0.8522 | 1022.53 | 1676.1 | 2.66
308.15 K, x2 = 0.9085 | 1014.02 | 1642.1 | 1.794
308.15 K, x2 = 0.9147 | 1012.94 | 1637.1 | 1.708
308.15 K, x2 = 0.9255 | 1010.96 | 1627.1 | 1.562
308.15 K, x2 = 0.935 | 1009.13 | 1617.2 | 1.439
308.15 K, x2 = 0.9548 | 1005.04 | 1594.1 | 1.197
308.15 K, x2 = 0.9556 | 1004.87 | 1593.1 | 1.188
308.15 K, x2 = 0.9602 | 1003.85 | 1586.2 | 1.135
308.15 K, x2 = 0.97 | 1001.61 | 1572.1 | 1.025
308.15 K, x2 = 0.9801 | 999.19 | 1556.1 | 0.917
308.15 K, x2 = 0.9897 | 996.76 | 1539.3 | 0.819
308.15 K, x2 = 0.9921 | 996.14 | 1534.1 | 0.795
308.15 K, x2 = 0.9951 | 995.35 | 1528.8 | 0.766
318.15 K, x2 = 0.0622 | 1037.53 | 1609.1 | 15.8
318.15 K, x2 = 0.1496 | 1037.64 | 1616 | 14.16
318.15 K, x2 = 0.2563 | 1037.68 | 1627.8 | 12.19
318.15 K, x2 = 0.35 | 1037.55 | 1643 | 10.48
318.15 K, x2 = 0.4555 | 1036.94 | 1661 | 8.554
318.15 K, x2 = 0.5 | 1036.42 | 1667 | 7.749
318.15 K, x2 = 0.5548 | 1035.46 | 1674.1 | 6.767
318.15 K, x2 = 0.6522 | 1032.48 | 1682 | 5.075
318.15 K, x2 = 0.7553 | 1026.64 | 1683 | 3.415
318.15 K, x2 = 0.8522 | 1017.23 | 1666.1 | 2.057
318.15 K, x2 = 0.9085 | 1009.22 | 1639.2 | 1.397
318.15 K, x2 = 0.9147 | 1008.19 | 1635.3 | 1.331
318.15 K, x2 = 0.9255 | 1006.32 | 1625.9 | 1.221
318.15 K, x2 = 0.935 | 1004.59 | 1617.9 | 1.127
318.15 K, x2 = 0.9548 | 1000.71 | 1598.1 | 0.945
318.15 K, x2 = 0.9556 | 1000.54 | 1592.2 | 0.938
318.15 K, x2 = 0.9602 | 999.58 | 1580.1 | 0.898
318.15 K, x2 = 0.97 | 997.45 | 1566.1 | 0.817
318.15 K, x2 = 0.9801 | 995.14 | 1552.1 | 0.737
318.15 K, x2 = 0.9897 | 992.82 | 1549.9 | 0.667
318.15 K, x2 = 0.9921 | 992.23 | 1548.1 | 0.65
318.15 K, x2 = 0.9951 | 991.47 | 1543.2 | 0.629
328.15 K, x2 = 0.0622 | 1031.1 | 1585.1 | 10.49
328.15 K, x2 = 0.1496 | 1031.18 | 1591.1 | 9.407
328.15 K, x2 = 0.2563 | 1031.17 | 1603.2 | 8.114
328.15 K, x2 = 0.35 | 1030.98 | 1618.2 | 6.986
328.15 K, x2 = 0.4555 | 1030.32 | 1635.8 | 5.721
328.15 K, x2 = 0.5 | 1029.79 | 1642.1 | 5.192
328.15 K, x2 = 0.5548 | 1028.83 | 1649.1 | 4.547
328.15 K, x2 = 0.6522 | 1025.94 | 1657.8 | 3.436
328.15 K, x2 = 0.7553 | 1020.39 | 1661.1 | 2.346
328.15 K, x2 = 0.8522 | 1011.49 | 1651.2 | 1.456
328.15 K, x2 = 0.9085 | 1003.89 | 1630 | 1.024
328.15 K, x2 = 0.9147 | 1002.92 | 1626.2 | 0.981
328.15 K, x2 = 0.9255 | 1001.14 | 1620.2 | 0.909
328.15 K, x2 = 0.935 | 999.49 | 1613.2 | 0.848
328.15 K, x2 = 0.9548 | 995.78 | 1597.2 | 0.729
328.15 K, x2 = 0.9556 | 995.62 | 1596.1 | 0.725
328.15 K, x2 = 0.9602 | 994.7 | 1591.8 | 0.699
328.15 K, x2 = 0.97 | 992.65 | 1582.1 | 0.646
328.15 K, x2 = 0.9801 | 990.44 | 1571.1 | 0.594
328.15 K, x2 = 0.9897 | 988.21 | 1559.2 | 0.549
328.15 K, x2 = 0.9921 | 987.63 | 1556.2 | 0.538
328.15 K, x2 = 0.9951 | 986.91 | 1552.2 | 0.524
338.15 K, x2 = 0.0622 | 1024.56 | 1565.1 | 7.386
338.15 K, x2 = 0.1496 | 1024.59 | 1571.2 | 6.633
338.15 K, x2 = 0.2563 | 1024.49 | 1582.3 | 5.732
338.15 K, x2 = 0.35 | 1024.2 | 1594.8 | 4.946
338.15 K, x2 = 0.4555 | 1023.41 | 1611.1 | 4.065
338.15 K, x2 = 0.5 | 1022.84 | 1616.8 | 3.696
338.15 K, x2 = 0.5548 | 1021.85 | 1623.9 | 3.247
338.15 K, x2 = 0.6522 | 1019 | 1634.1 | 2.473
338.15 K, x2 = 0.7553 | 1013.69 | 1639 | 1.715
338.15 K, x2 = 0.8522 | 1005.25 | 1632 | 1.096
338.15 K, x2 = 0.9085 | 998.04 | 1616 | 0.797
338.15 K, x2 = 0.9147 | 997.1 | 1613.2 | 0.767
338.15 K, x2 = 0.9255 | 995.41 | 1608.2 | 0.717
338.15 K, x2 = 0.935 | 993.83 | 1603.1 | 0.675
338.15 K, x2 = 0.9548 | 990.28 | 1591.1 | 0.593
338.15 K, x2 = 0.9556 | 990.13 | 1591.3 | 0.59
338.15 K, x2 = 0.9602 | 989.24 | 1587.1 | 0.572
338.15 K, x2 = 0.97 | 987.28 | 1579.9 | 0.536
338.15 K, x2 = 0.9801 | 985.14 | 1571 | 0.501
338.15 K, x2 = 0.9897 | 982.99 | 1562 | 0.469
338.15 K, x2 = 0.9921 | 982.43 | 1559.1 | 0.462
338.15 K, x2 = 0.9951 | 981.73 | 1556 | 0.453

From the NIST ThermoML archive (doi:10.1021/je0340755)
